This note sets out measurements from patent US8796320B2, “1,3,4-Oxadiazole-2-carboxamide compound” (General Incorporated Association Pharma Valley Project …, priority 2009, dated 2014).

One assay deals with STAT3. Description: STAT3 transcription inhibition test (reporter gene method). In kind it is cell-based. The settings on record: compound at 100 μM, STAT3 reporter HeLa stable cell line, oncostatin M 10 ng/mL, 4 hours; for inhibition at 100 µM: Homo sapiens, read-out: STAT3 transcription inhibitory activity (%). The protocol: The inhibition of STAT3 transcription was evaluated by using STAT3 reporter HeLa stable cell line (Panomics Inc., catalog No. RC0003), a cell line for the reporter gene method, and performing the following method according to the appendix included therein.
STAT3, reporter HeLa stable cell line subcultured and maintained in a Dulbecco's modified Eagle's medium (DMEM) containing 10% fetal bovine serum, 100 units/mL penicillin, and 100 μg/mL streptomycin was inoculated at a concentration of 40000 cells/well to a 96-well plate (white) and attached to the plate by overnight incubation at 37° C. under 5% CO2. After addition of each evaluation compound adjusted to various concentrations (adjusted with a DMSO solution), the cells were precultured for 1 hour. Then, oncostatin M for activating STAT3 was added at a final concentration 10 ng/mL, and the cells were further cultured at 37° C. under 5% CO2 for 4 hours. Luciferase activity derived from the cells was determined using Steady-Glo Luciferase Assay System (Promega Corp.), and STAT3 transcriptional activity scores were calculated according to the following formula: STAT3 transcriptional activity score (%)=100×(Lchem−L0)/(LDMSO−L0) • L0: luminescence intensity obtained without stimulation with oncostatin M • Lchem: luminescence intensity obtained by the addition of a test sample • LDMSO: luminescence intensity obtained by the addition of only a solvent for dissolving a test sample
The test results were indicated in the rate of inhibition of STAT3 transcription by each compound at a concentration of 100 μM.
A general note: Reporter assays use an easily measured gene product as a stand-in for the process of interest.

For the next assay, the system named is MDA-MB-468. Description: MDA-MB-468 cell growth inhibitory activity. The settings on record: Homo sapiens; compound at 20 μM; MDA-MB-468, 72 hours. In kind it is cell-based. The protocol:
MDA-MB-468 diluted with phenol red-free DMEM/F-12 (GIBCO; 10% FBS, 20 units/ml penicillin/streptomycin) was inoculated at a concentration of 2000 cells/well to a 96-well plate (Greiner Bio-One) and cultured overnight at 37° C. in the presence of 5% CO2. Then, a test sample solution (containing 2 (v/v)% DMSO) adjusted to 10 μM was added thereto at a concentration of 10 μL/well and contacted with the cells at 37° C. for 72 hours in the presence of 5% CO2. Each well was washed three times with a medium. Then, after addition of 100 μL/well of a medium and 20 μL/well of CellTiter 96 AQueous, One Solution Reagent (Promega Corp.), the cells were incubated at 37° C. for 2 hours in the presence of 5% CO2. Absorbance at 495 nm was measured using Multiplate reader (Molecular Devices, Inc.), and the rate of inhibition of cell growth was calculated according to the following formula: Rate of inhibition of cell growth (%)=100−100×(Abschem−bkgd)/(AbsDMSO−bkgd) • Abschem: absorbance obtained by the addition of a test sample • AbsDMSO: absorbance obtained by the addition of only a solvent for test sample dissolution • bkgd: absorbance obtained by the addition of CellTiter 96 AQueous One Solution Reagent to a medium for cell culture
The test results were indicated in the rate of inhibition of cell growth by each compound at a concentration of 20 μM.

Consider `O=C(Nc1nnc(-c2ccco2)o1)c1cccc(-c2ccccc2)c1` [Compound Ia-1, N-[5-(2-Furyl)-1,3,4-oxadiazol-2-yl]-3-biphenylcarboxamide], for which the inhibition at 100 µM in the assay with STAT3 is 60%.
Regarding `O=C(Nc1nnc(-c2ccco2)o1)c1cccc(-c2cccc([N+](=O)[O-])c2)c1` [Compound Ia-5, N-[5-(2-Furyl)-1,3,4-oxadiazol-2-yl]-3′-nitro-3-biphenylcarboxamide], in the assay with STAT3, the inhibition at 100 µM worked out at 98%. Moreover, the inhibition at 20 µM in the assay with MDA-MB-468 amounted to 88%.
`O=C(Nc1nnc(-c2ccco2)o1)c1cccc(-c2ccc(F)cc2)c1` [Compound Ia-10, 4′-Fluoro-N-[5-(2-furyl)-1,3,4-oxadiazol-2-yl]-3-biphenylcarboxamide]: in the assay with STAT3, the inhibition at 100 µM came out at 97%.
With `Cc1ccc(-c2cccc(C(=O)Nc3nnc(-c4ccco4)o3)c2)cc1` [Compound Ia-12, N-[5-(2-Furyl)-1,3,4-oxadiazol-2-yl]-4′-methyl-3-biphenylcarboxamide], in the assay on STAT3, the inhibition at 100 µM is 83%. Besides, the inhibition at 20 µM in the assay with MDA-MB-468 was determined as 61%.
Take `COc1ccc(-c2cccc(C(=O)Nc3nnc(-c4ccco4)o3)c2)cc1` [Compound Ia-16, N-[5-(2-Furyl)-1,3,4-oxadiazol-2-yl]-4′-methoxy-3-biphenylcarboxamide]: the inhibition at 100 µM in the assay with STAT3 was found to be 57%.
Consider `O=C(Nc1nnc(-c2ccco2)o1)c1cccc(-c2ccc(C(=O)c3ccccc3)cc2)c1` [Compound Ia-19, 4′-Benzoyl-N-[5-(2-furyl)-1,3,4-oxadiazol-2-yl]-3-biphenylcarboxamide], for which the inhibition at 100 µM in the assay on STAT3 turned out to be 55%. The molecule also yielded an inhibition at 20 µM in the assay on MDA-MB-468 of 94%.
For `O=C(Nc1nnc(-c2ccco2)o1)c1cccc(-c2ccc([N+](=O)[O-])cc2)c1` [Compound Ia-24, N-[5-(2-Furyl)-1,3,4-oxadiazol-2-yl]-4′-nitro-3-biphenylcarboxamide], the inhibition at 100 µM with STAT3 is 94%. Moreover, the inhibition at 20 µM with MDA-MB-468 came out at 97%.
For `Cc1cc(C#N)ccc1-c1cccc(C(=O)Nc2nnc(-c3ccco3)o2)c1` [Compound Ia-29, 4′-Cyano-N-[5-(2-furyl)-1,3,4-oxadiazol-2-yl]-2′-methyl-3-biphenylcarboxamide], the inhibition at 100 µM in the assay on STAT3 worked out at 81%. For the same molecule, in the assay on MDA-MB-468, the inhibition at 20 µM turned out to be 87%.
Take `O=C(Nc1nnc(-c2ccco2)o1)c1cccc(-c2ccc3ccccc3c2)c1` [Compound Ia-33, N-[5-(2-Furyl)-1,3,4-oxadiazol-2-yl]-3-(2-naphthyl)benzenecarboxamide]: the inhibition at 100 µM with STAT3 stood at 90%. Further, the inhibition at 20 µM with MDA-MB-468 stood at 98%.
For `Cc1ccc(-c2cccc(C(=O)Nc3nnc(-c4ccco4)o3)c2)o1` [Compound Ia-34, N-[5-(2-Furyl)-1,3,4-oxadiazol-2-yl]-3-(5-methyl-2-furyl)benzenecarboxamide], the inhibition at 100 µM with STAT3 was 78%.
Take `O=C(Nc1nnc(-c2ccco2)o1)c1cccc(-c2ccc3c(c2)OCO3)c1` [Compound Ia-42, N-[5-(2-Furyl)-1,3,4-oxadiazol-2-yl]-3-(3,4-methylenedioxyphenyl)benzenecarboxamide]: the inhibition at 100 µM with STAT3 is 88%.
For the molecule `O=C(Nc1nnc(-c2ccco2)o1)c1cccc(-c2ccc3sccc3c2)c1` [Compound Ia-47, 3-(5-Benzothienyl)-N-[5-(2-furyl)-1,3,4-oxadiazol-2-yl]benzenecarboxamide], in the assay with STAT3, the inhibition at 100 µM was determined as 58%. This molecule also registered an inhibition at 20 µM with MDA-MB-468 of 53%.
In the case of `Cn1ccc2cc(-c3cc(F)cc(C(=O)Nc4nnc(-c5ccco5)o4)c3)ccc21` [Compound Ia-52, 5-Fluoro-N-[5-(2-furyl)-1,3,4-oxadiazol-2-yl]-3-(1-methyl-5-indolyl)benzenecarboxamide], the inhibition at 100 µM in the assay with STAT3 amounted to 71%. This molecule came in with an inhibition at 20 µM in the assay with MDA-MB-468 of 91%.
Take `O=C(Nc1nnc(-c2ccco2)o1)c1cc(-c2ccc(Cl)cc2)nc(-c2ccc(Br)cc2)c1` [Compound Ia-56, 2-(4-Bromophenyl)-6-(4-chlorophenyl)-N-[5-(2-furyl)-1,3,4-oxadiazol-2-yl]-4-pyridinecarboxamide]: the inhibition at 100 µM with STAT3 came out at 87%. Also, the inhibition at 20 µM in the assay with MDA-MB-468 amounted to 61%.
For the molecule `C[Si](C)(C)c1ccc(-c2cccc(C(=O)Nc3nnc(-c4ccco4)o3)c2)cc1` [Compound Ia-62, N-[5-(2-Furyl)-1,3,4-oxadiazol-2-yl]-4′-trimethylsilyl-3-biphenylcarboxamide], in the assay on STAT3, the inhibition at 100 µM amounted to 76%. Also, the inhibition at 20 µM in the assay with MDA-MB-468 stood at 71%.
With `O=C(Nc1nnc(-c2ccco2)o1)c1cccc(-c2ccc(Oc3ccccc3)cc2)c1` [Compound Ia-66, N-[5-(2-Furyl)-1,3,4-oxadiazol-2-yl]-4′-phenoxy-3-biphenylcarboxamide], the inhibition at 100 µM in the assay with STAT3 is 58%. In the assay on MDA-MB-468, this molecule gave an inhibition at 20 µM of 59%.
Consider `COC(=O)c1ccc(-c2cccc(C(=O)Nc3nnc(-c4ccco4)o3)c2)cc1` [Compound Ia-69, N-[5-(2-Furyl)-1,3,4-oxadiazol-2-yl]-4′-methoxycarbonyl-3-biphenylcarboxamide], for which, in the assay with STAT3, the inhibition at 100 µM is 53%. Also, the inhibition at 20 µM in the assay on MDA-MB-468 was 69%.
For the molecule `O=C(Nc1nnc(-c2ccco2)o1)c1cccc(-c2ccc(-c3ccc(Cl)cc3)cc2)c1` [Compound Ia-77, 4″-Chloro-N-[5-(2-furyl)-1,3,4-oxadiazol-2-yl]-3-(p-terphenyl)carboxamide], the inhibition at 100 µM in the assay on STAT3 came to 80%. The molecule also had an inhibition at 20 µM with MDA-MB-468 of 76%.
Regarding `CC(C)Oc1ccc(-c2ccc(-c3cccc(C(=O)Nc4nnc(-c5ccco5)o4)c3)cc2)cc1` [Compound Ia-81, N-[5-(2-Furyl)-1,3,4-oxadiazol-2-yl]-4″-isopropoxy-3-(p-terphenyl)carboxamide], in the assay on STAT3, the inhibition at 100 µM is 63%. For the same molecule, the inhibition at 20 µM with MDA-MB-468 is 78%.
In the case of `O=C(Nc1nnc(-c2ccco2)o1)c1cccc(-c2ccc(-c3cccc4ccccc34)cc2)c1` [Compound Ia-82, N-[5-(2-Furyl)-1,3,4-oxadiazol-2-yl]-4′-(1-naphthyl)-3-biphenylcarboxamide], the inhibition at 100 µM with STAT3 turned out to be 54%. Further, in the assay with MDA-MB-468, the inhibition at 20 µM came to 75%.
Consider `O=C(Nc1nnc(-c2ccco2)o1)c1cccc(-c2ccc(CCN3CCOCC3)cc2)c1` [Compound Ia-90, N-[5-(2-Furyl)-1,3,4-oxadiazol-2-yl]-4′-(2-morpholinoethyl)-3-biphenylcarboxamide], for which, in the assay with STAT3, the inhibition at 100 µM was 97%.
As for `O=C(Nc1nnc(-c2ccco2)o1)c1ccc(-c2cccc(Cl)c2)o1` [Compound Ic-4, 5-(3-Chlorophenyl)-N-[5-(2-furyl)-1,3,4-oxadiazol-2-yl]-2-furancarboxamide], the inhibition at 100 µM in the assay with STAT3 turned out to be 81%.
For `CCOC(=O)c1ccc(-c2ccc(C(=O)Nc3nnc(-c4ccco4)o3)o2)cc1` [Compound Ic-12, 5-(4-Ethoxycarbonylphenyl)-N-[5-(2-furyl)-1,3,4-oxadiazol-2-yl]-2-furancarboxamide], the inhibition at 100 µM in the assay with STAT3 stood at 73%.
Still for that read-out and setting: the result for `O=C(Nc1nnc(-c2ccco2)o1)c1ccc(-c2ccc([N+](=O)[O-])cc2Cl)o1` [Compound Ic-14, 5-(2-Chloro-4-nitrophenyl)-N-[5-(2-furyl)-1,3,4-oxadiazol-2-yl]-2-furancarboxamide] reads 51%.
On the same count and under the same terms, next, `O=C(Nc1nnc(-c2ccco2)o1)c1ccc(-c2cc([N+](=O)[O-])ccc2Cl)o1` [Compound Ic-19, 5-(2-Chloro-5-nitrophenyl)-N-[5-(2-furyl)-1,3,4-oxadiazol-2-yl]-2-furancarboxamide]: 56%; `O=C(Nc1nnc(-c2ccco2)o1)c1ccc(-c2cc(Cl)cc(Cl)c2)o1` [Compound Ic-21, 5-(3,5-Dichlorophenyl)-N-[5-(2-furyl)-1,3,4-oxadiazol-2-yl]-2-furancarboxamide]: 64%; `Cc1oc(-c2ccccc2)cc1C(=O)Nc1nnc(-c2ccco2)o1` [Compound Ic-22, N-[5-(2-Furyl)-1,3,4-oxadiazol-2-yl]-2-methyl-5-phenyl-3-furancarboxamide]: 65%.
Regarding `O=C(Nc1nnc(-c2ccco2)o1)c1nc(-c2ccc(F)cc2)n2c1CCCCC2` [Compound Ic-26], the “STAT3 transcription inhibitory activity (%)” value in the assay on STAT3 is 58%.
